From the supplement of paper PMC10307832

What was measured:
Assay in all cases: relative viability (nuclei count vs DMSO), 5 days (fraction); higher = more cells survive
Tozasertib + Bortezomib = compound: Cc1cc(Nc2cc(N3CCN(C)CC3)nc(Sc3ccc(NC(=O)C4CC4)cc3)n2)n[nH]1 [Tozasertib] + CC(C)C[C@H](NC(=O)[C@H](Cc1ccccc1)NC(=O)c1cnccn1)B(O)O [Bortezomib] (partner 0.002 µM)
Outline: (§1)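 Cells from lung cancer lines were seeded into 1536-well plates and, one day later, dosed by pin tool. Treatments were either a single drug or a fixed dose of an anchor drug with five library-drug doses (not always all listed) in √10 steps. After 5 days, nuclei were stained in a one-step fixation (final 0.05% Triton X-100, 1% formaldehyde, 1 ug/ml Hoechst) and counted on 4× images, and relative viability is the treated-to-vehicle nuclei ratio, as the median of duplicate plates.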

Tozasertib + Pictilisib = compound: Cc1cc(Nc2cc(N3CCN(C)CC3)nc(Sc3ccc(NC(=O)C4CC4)cc3)n2)n[nH]1 [Tozasertib] + CS(=O)(=O)N1CCN(Cc2cc3nc(-c4cccc5[nH]ncc45)nc(N4CCOCC4)c3s2)CC1 [Pictilisib] (partner 1 µM)
Outline: as §1

Tozasertib + Linsitinib = compound: Cc1cc(Nc2cc(N3CCN(C)CC3)nc(Sc3ccc(NC(=O)C4CC4)cc3)n2)n[nH]1 [Tozasertib] + C[C@]1(O)C[C@@H](c2nc(-c3ccc4ccc(-c5ccccc5)nc4c3)c3c(N)nccn32)C1 [Linsitinib] (partner 1 µM)
Outline: as §1

Tozasertib + Alpelisib = compound: Cc1cc(Nc2cc(N3CCN(C)CC3)nc(Sc3ccc(NC(=O)C4CC4)cc3)n2)n[nH]1 [Tozasertib] + Cc1nc(NC(=O)N2CCC[C@H]2C(N)=O)sc1-c1ccnc(C(C)(C)C(F)(F)F)c1 [Alpelisib] (partner 2 µM)
Outline: as §1

Tozasertib + Vorinostat = compound: Cc1cc(Nc2cc(N3CCN(C)CC3)nc(Sc3ccc(NC(=O)C4CC4)cc3)n2)n[nH]1 [Tozasertib] + O=C(CCCCCCC(=O)Nc1ccccc1)NO [Vorinostat] (partner 1 µM)
Outline: as §1

Cell Line | relative viability (Tozasertib + Bortezomib; first compound 0.004 µM) | relative viability (Tozasertib + Bortezomib; first compound 0.01265 µM) | relative viability (Tozasertib + Bortezomib; first compound 0.04 µM) | relative viability (Tozasertib + Bortezomib; first compound 0.1265 µM) | relative viability (Tozasertib + Pictilisib; first compound 0.01265 µM) | relative viability (Tozasertib + Pictilisib; first compound 0.04 µM) | relative viability (Tozasertib + Pictilisib; first compound 0.1265 µM) | relative viability (Tozasertib + Linsitinib; first compound 0.004 µM) | relative viability (Tozasertib + Linsitinib; first compound 0.01265 µM) | relative viability (Tozasertib + Linsitinib; first compound 0.04 µM) | relative viability (Tozasertib + Linsitinib; first compound 0.1265 µM) | relative viability (Tozasertib + Alpelisib; first compound 0.004 µM) | relative viability (Tozasertib + Alpelisib; first compound 0.01265 µM) | relative viability (Tozasertib + Alpelisib; first compound 0.04 µM) | relative viability (Tozasertib + Alpelisib; first compound 0.1265 µM) | relative viability (Tozasertib + Vorinostat; first compound 0.004 µM) | relative viability (Tozasertib + Vorinostat; first compound 0.01265 µM) | relative viability (Tozasertib + Vorinostat; first compound 0.1265 µM) | relative viability (Tozasertib + Pictilisib; first compound 0.004 µM) | relative viability (Tozasertib + Vorinostat; first compound 0.04 µM)
H3255 | 0.789 | 0.7 | 0.823 | 0.549 | 0.463 | 0.533 | 0.413 | 0.862 | 0.758 | 1.04 | 0.817 | 0.592 | 0.654 | 0.762 | 0.658 | 0.86 | 0.676 | 0.712 |  | 
ABC-1 | 0.278 | 0.282 | 0.3 | 0.231 |  | 0.625 | 0.291 | 0.831 |  | 0.554 | 0.767 | 0.916 | 1.06 | 0.721 | 0.816 | 1.35 | 1 | 0.306 | 0.782 | 0.767
CAL-12T | 1.2 | 0.785 | 0.962 | 0.362 | 0.386 | 0.414 | 0.171 | 0.857 | 0.804 | 0.793 | 0.64 | 1.31 | 1.23 | 1.33 | 1.08 | 0.694 | 0.677 | 0.305 | 0.472 | 0.751
LCLC-97TM1 | 0.933 | 0.271 | 0.624 | 0.106 | 0.181 | 0.222 | 0.11 |  | 0.204 | 0.155 | 0.163 |  | 0.247 | 0.32 | 0.207 | 0.69 | 0.639 | 0.153 |  | 0.644
EMC-BAC-2 | 1.09 | 1.05 | 0.96 |  | 0.541 | 0.654 | 0.395 | 0.867 | 0.79 |  | 0.611 | 0.771 |  | 0.724 | 0.428 | 0.438 | 0.233 | 0.15 | 0.547 | 0.242
NCI-H522 |  |  |  |  |  |  |  |  |  |  |  |  |  |  |  | 0.917 | 1.14 | 0.782 |  | 0.759
LXF-289 | 1 | 0.917 | 0.972 | 0.777 | 0.828 | 0.778 | 0.789 | 0.994 | 0.883 | 0.868 | 0.554 |  | 1.05 | 0.955 | 0.615 | 0.731 | 0.702 | 0.252 | 0.835 | 0.533
NCI-H2085 | 1.01 | 1.07 | 1.11 | 0.792 | 0.421 | 0.486 | 0.266 | 0.966 | 0.865 | 0.949 | 0.649 | 0.999 | 0.963 | 0.873 | 0.804 | 0.797 | 0.714 | 0.603 | 0.454 | 
ChaGo-K-1 | 1.17 | 0.953 | 1.14 | 0.31 | 0.676 | 0.771 | 0.256 |  |  |  |  |  |  |  |  | 0.75 | 0.683 | 0.265 | 0.849 | 0.714
NCI-H1650 | 0.202 | 0.207 | 0.24 | 0.2 | 0.557 | 0.639 | 0.204 |  |  |  |  |  |  |  |  | 0.517 | 0.462 | 0.391 | 0.589 | 0.68
SK-MES-1 |  |  |  |  | 0.302 | 0.35 | 0.326 | 1.1 | 1.02 | 1.14 | 1.1 | 0.967 | 0.746 | 0.894 | 0.535 | 1 | 1.1 | 0.525 | 0.401 | 1.19
SW 900 |  |  |  |  |  |  |  |  |  |  |  |  |  |  |  | 0.579 | 0.436 | 0.266 |  | 
NCI-H1792 | 0.771 | 0.88 | 1.1 | 0.96 | 0.203 | 0.241 | 0.167 | 0.461 | 0.398 | 0.528 | 0.331 | 0.613 | 0.596 | 0.817 | 0.618 |  |  |  | 0.297 | 
NCI-H1703 | 0.41 | 0.29 | 0.401 | 0.222 | 0.221 | 0.248 | 0.23 | 1.26 | 0.833 | 0.808 | 0.626 | 0.364 | 0.357 | 0.445 | 0.209 |  |  |  | 0.287 | 
NCI-H2170 |  |  |  |  | 0.327 | 0.295 | 0.276 |  |  |  |  | 0.721 | 0.769 | 0.838 | 0.679 | 0.764 | 0.887 | 0.427 | 0.3 | 0.69
NCI-H1793 |  |  |  |  | 0.357 | 0.351 | 0.261 | 0.909 | 0.764 | 0.853 | 0.625 | 0.578 | 0.699 | 0.872 |  | 0.785 | 0.654 | 0.267 | 0.396 | 0.931
NCI-H358 |  |  |  |  | 0.263 | 0.366 | 0.178 | 0.787 | 0.69 | 0.651 | 0.194 | 1.08 | 0.863 | 0.83 | 0.182 | 0.626 | 0.648 | 0.15 | 0.353 | 0.361
NCI-H1395 |  |  |  |  | 0.528 | 0.604 | 0.469 | 1.57 | 0.974 | 1.16 | 0.75 | 1.15 | 1.04 | 0.914 | 0.753 | 0.944 | 0.641 | 0.353 | 0.657 | 0.643
NCI-H1563 | 0.873 | 0.817 | 0.956 | 0.861 | 0.641 | 0.684 | 0.53 | 1.26 | 1.2 | 1.14 | 1.12 | 0.944 | 0.794 | 0.94 | 0.874 |  |  |  | 0.61 | 
A549 |  |  |  |  | 0.463 | 0.517 | 0.0954 | 0.461 | 0.511 | 0.71 | 0.33 | 0.686 | 0.826 | 0.759 | 0.211 |  |  |  | 0.529 | 
LK-2 |  |  |  |  |  | 0.61 | 0.359 | 0.639 | 0.541 | 0.442 | 0.272 | 1.33 |  | 1.12 | 0.306 | 0.287 | 0.321 | 0.197 | 0.715 | 0.28
